Experimental data taken from BindingDB's records for doi:10.1016/j.bioorg.2009.09.001 (University of Ljubljana, 2009).

Key:
Assay in all cases: Enzymatic Assay
Conditions in all cases: pH 8; 37 °C
[1] = target: UDP-N-acetylmuramate--L-alanine ligase (Escherichia coli (strain K12), UniProt P17952)
Procedure: (§1) Compounds were tested for their inhibition of the addition of L-Ala, D-Glu, L-Lys or D-Ala-D-Ala to nucleotide precursors catalyzed by MurC from Escherichia coli, MurD from E. coli, MurE from Staphylococcus aureus, and MurF from E coli. The detection of the orthophosphate generated during the reaction was based on the colorimetric Malachite green method.

[2] = target: T1, UDP-N-acetylmuramoyl-L-alanyl-D-glutamate--L-lysine ligase (Staphylococcus aureus (strain NCTC 8325 / PS 47), UniProt Q2FZP6)
T1 sequence (Q2FZP6 whole entry): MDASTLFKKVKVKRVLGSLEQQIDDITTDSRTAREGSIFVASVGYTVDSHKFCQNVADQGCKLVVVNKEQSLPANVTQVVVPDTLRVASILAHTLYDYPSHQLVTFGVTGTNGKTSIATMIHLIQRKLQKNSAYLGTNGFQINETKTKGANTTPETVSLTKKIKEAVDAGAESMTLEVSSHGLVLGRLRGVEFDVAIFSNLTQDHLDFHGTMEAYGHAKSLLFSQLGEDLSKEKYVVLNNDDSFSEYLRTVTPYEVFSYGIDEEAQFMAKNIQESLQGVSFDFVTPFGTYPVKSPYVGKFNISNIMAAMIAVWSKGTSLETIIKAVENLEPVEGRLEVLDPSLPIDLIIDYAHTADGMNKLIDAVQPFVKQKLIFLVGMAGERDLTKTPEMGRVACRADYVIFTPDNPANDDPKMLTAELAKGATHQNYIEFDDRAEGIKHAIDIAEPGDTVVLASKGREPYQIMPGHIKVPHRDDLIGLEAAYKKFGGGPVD
Procedure: as §1

[3] = target: T2, UDP-N-acetylmuramoyl-tripeptide--D-alanyl-D-alanine ligase (Escherichia coli (strain K12), UniProt P11880)
T2 sequence (P11880 whole entry): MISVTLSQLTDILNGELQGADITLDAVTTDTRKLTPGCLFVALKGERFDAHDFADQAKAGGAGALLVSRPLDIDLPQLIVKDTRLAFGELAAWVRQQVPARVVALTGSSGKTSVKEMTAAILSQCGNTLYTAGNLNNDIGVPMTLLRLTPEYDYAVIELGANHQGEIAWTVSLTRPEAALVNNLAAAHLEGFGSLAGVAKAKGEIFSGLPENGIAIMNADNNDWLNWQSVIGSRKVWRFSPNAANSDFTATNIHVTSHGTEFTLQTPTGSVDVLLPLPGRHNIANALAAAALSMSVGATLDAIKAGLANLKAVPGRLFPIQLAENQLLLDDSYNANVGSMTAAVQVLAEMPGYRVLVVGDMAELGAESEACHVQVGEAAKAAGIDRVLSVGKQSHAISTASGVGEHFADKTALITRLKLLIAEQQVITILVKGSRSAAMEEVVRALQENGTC
Procedure: as §1

UDP-N-acetylmuramate--L-alanine ligase, sequence (P17952 whole entry): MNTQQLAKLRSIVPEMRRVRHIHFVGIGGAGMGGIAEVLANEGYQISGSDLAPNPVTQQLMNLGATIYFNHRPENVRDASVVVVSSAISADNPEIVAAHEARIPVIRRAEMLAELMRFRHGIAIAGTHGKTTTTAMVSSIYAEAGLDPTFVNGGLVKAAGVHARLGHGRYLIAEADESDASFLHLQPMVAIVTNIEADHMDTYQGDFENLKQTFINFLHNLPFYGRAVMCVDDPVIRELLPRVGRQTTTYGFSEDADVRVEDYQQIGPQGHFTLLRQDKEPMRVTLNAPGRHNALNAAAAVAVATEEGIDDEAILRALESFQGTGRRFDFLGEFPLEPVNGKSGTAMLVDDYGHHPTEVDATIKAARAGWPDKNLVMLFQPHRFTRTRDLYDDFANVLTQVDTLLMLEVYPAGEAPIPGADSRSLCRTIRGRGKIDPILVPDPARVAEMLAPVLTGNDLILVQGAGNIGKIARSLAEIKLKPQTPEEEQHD

O=P(O)(O)OC(CNS(=O)(=O)c1ccc(F)cc1)CN1CCOCC1 (stereo not drawn) [HEA derivative, 7b]
IC50 [1]: 790 µM
IC50 [2]: 120 µM
IC50 [3]: 270 µM

Cc1ccc(S(=O)(=O)NCC(CN2CCOCC2)OP(=O)(O)O)cc1 (stereo not drawn) [HEA derivative, 7e]
IC50 [1]: 540 µM
IC50 [2]: 120 µM
IC50 [3]: 560 µM

O=P(O)(O)OC(CNS(=O)(=O)c1cccc(C(F)(F)F)c1)CN1CCOCC1 (stereo not drawn) [HEA derivative, 7d]
IC50 [1]: 530 µM
IC50 [2]: 160 µM
IC50 [3]: 150 µM

COc1ccc(S(=O)(=O)NCC(CN2CCOCC2)OP(=O)(O)O)cc1 (stereo not drawn)
IC50 [1]: 490 µM
IC50 [2]: 6 µM
IC50 [3]: 530 µM

O=P(O)(O)OC(CNS(=O)(=O)c1ccc(C(F)(F)F)cc1)CN1CCOCC1 (stereo not drawn) [MurC/D/E/F inhibitor (compound 68)]
IC50 [1]: 200 µM
IC50 [2]: 57 µM
IC50 [3]: 240 µM

CCc1ccc(S(=O)(=O)NCC(CN2CCOCC2)OP(=O)(O)O)cc1 (stereo not drawn) [HEA derivative, 7f]
IC50 [1]: 760 µM
IC50 [2]: 61 µM
IC50 [3]: 360 µM
